Measured values from patent US6995159B2, “5-HT receptor ligands and uses thereof” (Pfizer Inc., priority 2001, dated 2006).
Where a name gives a salt, the structure may show the parent alone.

Each compound was assayed on 5-HT2c receptor (assay: Functional assay (FLIPR calcium, Fluo 4-AM) in 5-HT2c expressed cells). Details: 5-HT2c expressed NIH 3T3 cells.
Format: cell-based
Procedure: (§1) Swiss 3T3 cells expressing r-5HT2C, r-5HT2A, h-5HT2C or h-5HT2A receptors are seeded at a density of 12,500 cells/well in 384 well black/clear collagen-coated plates. Forty eight (48) hrs later the cells are loaded with the calcium sensitive dye, Fluo 4-AM (4 μM dissolved in DMSO containing pluronic acid) in serum free DMEM in the presence of probenicid (2.5 mM) for 75 minutes at 37° C. in a CO2 incubator. Unincorporated dye is removed by washing 3 times with a HEPES-buffered saline containing probenicid (2.5 mM) using a Skatron™ cell washer (final volume 30 μL).
(§2) Plates are added to a fluorometric imaging plate reader (FLIPR 384 available from Molecular Devices Corporation) individually and fluorescence measurements are taken every 2 seconds over an 85 seconds period. Test compound additions are made simultaneously to all 384 wells after 20 seconds of baseline recording. Concentration-response curves are generated using Graphpad Prism™ (available from GraphPad Software, Inc., San Diego, Calif.) and agonist efficacies are generated as % of the response to 10 μM 5-HT (considered as 100%). Estimation of antagonist potencies (functional Kis) are generated by measuring inhibition of the test compound response to 5-HT (10 nM for 5-HT2C and 50 nM for 5-HT2A) and applying the Cheng Prusoff equation.
The functional data for the compounds listed in the Examples above utilizing the 5-HT2c expressed NIH 3T3 cells is summarized below.

Question: With `Fc1ccc(C(F)(F)F)c(COc2nccc(N3CCNCC3)n2)c1` [Example 1-PP, 2-(5-Fluoro-2-trifluoromethyl-benzyloxy)-4-piperazin-1-yl-pyrimidine] as the compound, how does the “functional mode at 5-HT2c (partial agonist / full antagonist)” value read?
Answer: full antagonists

Question: With `Clc1ccc(COc2ccnc(N3CCNCC3)n2)cc1Cl` [Example 2-F, 4-(3,4-Dichloro-benzyloxy)-2-piperazin-1-yl-pyrimidine] as the compound, how does the “functional mode at 5-HT2c (partial agonist / full antagonist)” value read?
Answer: full antagonists

Same assay, conditions: at 10 μM; 5-HT2c expressed NIH 3T3 cells

Question: Which 5-HT2c functional activity does the source give for `FC(F)(F)c1cc(COc2nccc(N3CCNCC3)n2)cc(C(F)(F)F)c1` [Example 1-QQ, 2-(3,5-Bis-trifluoromethyl-benzyloxy)-4-piperazin-1-yl-pyrimidine] here?
Answer: no 5-HT2c functional activity

Question: `CC(Oc1ccnc(N2CCNCC2)n1)c1ccc(Cl)cc1` (stereo not shown) [Example 2-D, 4-[1-(4-Chloro-phenyl)-ethoxy]-2-piperazin-1-yl-pyrimidine] was tested. Which 5-HT2c functional activity did it give?
Answer: no 5-HT2c functional activity

Question: For `Cc1ccc(COc2ccnc(N3CCNCC3)n2)cc1C.Cl` [Example 2-H, 4-(3,4-Dimethyl-benzyloxy)-2-piperazin-1-yl-pyrimidine, hydrochloride], which 5-HT2c functional activity is on record?
Answer: no 5-HT2c functional activity

The compounds below were run on 5-HT2a receptor (assay: Functional assay (FLIPR calcium, Fluo 4-AM) in 5-HT2a expressed cells). Details: 5-HT2a expressed NIH 3T3 cells.
Format: cell-based
Procedure: as §1, §2
The functional data for the compounds listed in the Examples above utilizing the 5-HT2a expressed NIH 3T3 cells is summarized below.

Question: How did the “functional mode at 5-HT2a (partial agonist / full antagonist)” value turn out when `COc1cccc(COc2nc(C)cc(N3CCNCC3)n2)c1` [Example 1-AL, 2-(3-Methoxy-benzyloxy)-4-methyl-6-piperazin-1-yl-pyrimidine] was run?
Answer: full antagonists

Question: How did the “functional mode at 5-HT2a (partial agonist / full antagonist)” value turn out when `Cl.Clc1cccc(Cl)c1COc1nccc(N2CCNCC2)n1` [Example 1-FF, 2-(2,6-Dichloro-benzyloxy)-4-piperazin-1-yl-pyrimidine, hydrochloride] was run?
Answer: full antagonists

Question: How did the “functional mode at 5-HT2a (partial agonist / full antagonist)” value turn out when `Cl.Clc1cccc(COc2nccc(N3CCNCC3)n2)c1Cl` [Example 1-GG, 2-(2,3-Dichloro-benzyloxy)-4-piperazin-1-yl-pyrimidine, hydrochloride] was run?
Answer: full antagonists

Question: For `Cl.Clc1cc(Cl)cc(COc2nccc(N3CCNCC3)n2)c1` [Example 1-HH, 2-(3,5-Dichloro-benzyloxy)-4-piperazin-1-yl-pyrimidine, hydrochloride], which “functional mode at 5-HT2a (partial agonist / full antagonist)” value is on record?
Answer: full antagonists

Question: `Cl.FC(F)(F)Oc1ccccc1COc1nccc(N2CCNCC2)n1` [Example 1-II, 4-Piperazin-1-yl-2-(2-trifluoromethoxy-benzyloxy)-pyrimidine, hydrochloride] was tested. Which “functional mode at 5-HT2a (partial agonist / full antagonist)” value did it give?
Answer: full antagonists

Question: `C[C@@H]1CN(c2ccnc(OCc3cccc(Cl)c3)n2)CCN1` [Example 1-MM, 2-(3-Chloro-benzyloxy)-4-[(3R)-methyl-piperazin-1-yl]pyrimidine] was tested. Which “functional mode at 5-HT2a (partial agonist / full antagonist)” value did it give?
Answer: full antagonists

Question: How did the “functional mode at 5-HT2a (partial agonist / full antagonist)” value turn out when `Fc1ccc(C(F)(F)F)c(COc2nccc(N3CCNCC3)n2)c1` [Example 1-PP, 2-(5-Fluoro-2-trifluoromethyl-benzyloxy)-4-piperazin-1-yl-pyrimidine] was run?
Answer: full antagonists

Question: How did the “functional mode at 5-HT2a (partial agonist / full antagonist)” value turn out when `Clc1ccc(COc2nccc(N3CCNCC3)n2)cc1Cl` [Example 1-S, 2-(3,4-Dichloro-benzyloxy)-4-piperazin-1-yl-pyrimidine] was run?
Answer: full antagonists

Question: With `Fc1ccc(COc2nccc(N3CCNCC3)n2)cc1F` [Example 1-U, 2-(3,4-Difluoro-benzyloxy)-4-piperazin-1-yl-pyrimidine] as the compound, how does the “functional mode at 5-HT2a (partial agonist / full antagonist)” value read?
Answer: full antagonists

Question: Which “functional mode at 5-HT2a (partial agonist / full antagonist)” value does the source give for `C[C@H]1CNCCN1c1ccnc(OCc2cc(Cl)ccc2Cl)n1` [Example 1-VV, 2-(2,5-Dichloro-benzyloxy)-4-[(2S)-methyl-piperazin-1-yl]-pyrimidine] here?
Answer: full antagonists

Question: With `C[C@H]1CNCCN1c1ccnc(OCc2cc(F)ccc2F)n1` [Example 1-WW, 2-(2,5-Difluoro-benzyloxy)-4-[(2S)-methyl-piperazin-1-yl]-pyrimidine] as the compound, how does the “functional mode at 5-HT2a (partial agonist / full antagonist)” value read?
Answer: full antagonists

Question: Which “functional mode at 5-HT2a (partial agonist / full antagonist)” value does the source give for `Cl.Fc1cccc(COc2nccc(N3CCNCC3)n2)c1F` [Example 1-Y, 2-(2,3-Difluoro-benzyloxy)-4-piperazin-1-yl-pyrimidine, hydrochloride] here?
Answer: full antagonists

Question: Which “functional mode at 5-HT2a (partial agonist / full antagonist)” value does the source give for `Fc1cc(COc2nccc(N3CCNCC3)n2)cc(F)c1F` [Example 1-YY, 4-Piperazin-1-yl-2-(3,4,5-trifluoro-benzyloxy)-pyrimidine] here?
Answer: full antagonists

Question: For `Fc1ccc(COc2ccnc(N3CCNCC3)n2)cc1` [Example 2-E, 4-(4-Fluoro-benzyloxy)-2-piperazin-1-yl-pyrimidine], which “functional mode at 5-HT2a (partial agonist / full antagonist)” value is on record?
Answer: full antagonists

Question: For `Clc1ccc(COc2ccnc(N3CCNCC3)n2)cc1Cl` [Example 2-F, 4-(3,4-Dichloro-benzyloxy)-2-piperazin-1-yl-pyrimidine], which “functional mode at 5-HT2a (partial agonist / full antagonist)” value is on record?
Answer: full antagonists

Question: With `Fc1ccc(COc2ccnc(N3CCNCC3)n2)cc1F` [Example 2-G, 4-(3,4-Difluoro-benzyloxy)-2-piperazin-1-yl-pyrimidine] as the compound, how does the “functional mode at 5-HT2a (partial agonist / full antagonist)” value read?
Answer: full antagonists

Question: Which “functional mode at 5-HT2a (partial agonist / full antagonist)” value does the source give for `Cc1ccc(COc2ccnc(N3CCNCC3)n2)cc1C.Cl` [Example 2-H, 4-(3,4-Dimethyl-benzyloxy)-2-piperazin-1-yl-pyrimidine, hydrochloride] here?
Answer: full antagonists

Question: How did the “functional mode at 5-HT2a (partial agonist / full antagonist)” value turn out when `Fc1cccc(COc2ccnc(N3CCNCC3)n2)c1F.O=C(O)C(F)(F)F` [Example 2-I, 4-(2,3-Difluoro-benzyloxy)-2-piperazin-1-yl-pyrimidine, trifluoroacetate] was run?
Answer: full antagonists

Question: With `Cl.c1ccc(CNc2nccc(N3CCNCC3)n2)cc1` [Example 3-D, Benzyl-(4-piperazin-1-yl-pyrimidin-2-yl)-amine, hydrochloride] as the compound, how does the “functional mode at 5-HT2a (partial agonist / full antagonist)” value read?
Answer: full antagonists

Question: `Cl.Clc1cccc(CNc2ccnc(N3CCNCC3)n2)c1` [Example 4-A, (3-Chloro-benzyl)-(2-piperazin-1-yl-pyrimidin-4-yl)-amine, hydrochloride] was tested. Which “functional mode at 5-HT2a (partial agonist / full antagonist)” value did it give?
Answer: full antagonists

Question: For `Cl.Fc1cccc(CNc2ccnc(N3CCNCC3)n2)c1` [Example 4-B, (3-Fluoro-benzyl)-(2-piperazin-1-yl-pyrimidin-4-yl)-amine, hydrochloride], which “functional mode at 5-HT2a (partial agonist / full antagonist)” value is on record?
Answer: full antagonists

Question: For `Fc1cccc(CNc2ccnc(N3CCNCC3)n2)c1.O=C(O)/C=C/C(=O)O` [Example 4-C, (3-Fluoro-benzyl)-(2-piperazin-1-yl-pyrimidin-4-yl)-amine, fumarate], which “functional mode at 5-HT2a (partial agonist / full antagonist)” value is on record?
Answer: full antagonists

Question: For `Cl.c1ccc(CNc2ccnc(N3CCNCC3)n2)cc1` [Example 4-D, Benzyl-(2-piperazin-1-yl-pyrimidin-4-yl)-amine, hydrochloride], which “functional mode at 5-HT2a (partial agonist / full antagonist)” value is on record?
Answer: full antagonists

Question: For `Clc1cccc(COc2nccc(N3CCNCC3)n2)n1` [Example 5-A, 2-(6-Chloro-pyrdin-2-ylmethoxy)-4-piperazin-1-yl-pyrimidine, hydrochloride], which “functional mode at 5-HT2a (partial agonist / full antagonist)” value is on record?
Answer: full antagonists

Same assay, conditions: at 10 μM; 5-HT2a expressed NIH 3T3 cells

Question: With `C[C@H](Oc1nccc(N2CCNCC2)n1)c1ccccc1` [Example 1-AG, 2-[(1S)-Phenyl-ethoxy]-4-piperazin-1-yl-pyrimidine] as the compound, how does the 5-HT2a functional activity read?
Answer: no functional activity

Question: `COc1cccc(COc2nc(C)cc(N3CCNCC3)n2)c1` [Example 1-AL, 2-(3-Methoxy-benzyloxy)-4-methyl-6-piperazin-1-yl-pyrimidine] was tested. Which 5-HT2a functional activity did it give?
Answer: no functional activity

Question: With `Cc1cc(N2CCNCC2)nc(OCc2cccc(Oc3ccccc3)c2)n1` [Example 1-D, 4-Methyl-2-(3-phenoxy-benzyloxy)-6-piperazin-1-yl-pyrimidine] as the compound, how does the 5-HT2a functional activity read?
Answer: no functional activity

Question: For `Cc1cc(N2CCNCC2)nc(OCc2cccc(OC(F)(F)F)c2)n1` [Example 1-F, 4-Methyl-6-piperazin-1-yl-2-(3-trifluoromethoxy-benzyloxy)-pyrimidine], which 5-HT2a functional activity is on record?
Answer: no functional activity

Question: For `FC(F)(F)c1cc(COc2nccc(N3CCNCC3)n2)cc(C(F)(F)F)c1` [Example 1-QQ, 2-(3,5-Bis-trifluoromethyl-benzyloxy)-4-piperazin-1-yl-pyrimidine], which 5-HT2a functional activity is on record?
Answer: no functional activity
